Measurements taken from patent US20040024024A1, “Aromatic sulfone hydroxamates and their use as protease inhibitors” (priority 2001, published 2004).
Structures can show the parent of a compound that is named as a salt.

Assays:
Assay in all cases: In vitro MMP inhibition, IC50 determination (fluorogenic substrate I)
Assay type in all cases: biochemical
[1] = biological target: T1, Human recombinant MMP-1 (Homo sapiens, UniProt P03956)
T1 construct: made in house; host or cells: MMP-1-transfected HT-1080 cells (spent media)
T1 sequence (P03956 100-469): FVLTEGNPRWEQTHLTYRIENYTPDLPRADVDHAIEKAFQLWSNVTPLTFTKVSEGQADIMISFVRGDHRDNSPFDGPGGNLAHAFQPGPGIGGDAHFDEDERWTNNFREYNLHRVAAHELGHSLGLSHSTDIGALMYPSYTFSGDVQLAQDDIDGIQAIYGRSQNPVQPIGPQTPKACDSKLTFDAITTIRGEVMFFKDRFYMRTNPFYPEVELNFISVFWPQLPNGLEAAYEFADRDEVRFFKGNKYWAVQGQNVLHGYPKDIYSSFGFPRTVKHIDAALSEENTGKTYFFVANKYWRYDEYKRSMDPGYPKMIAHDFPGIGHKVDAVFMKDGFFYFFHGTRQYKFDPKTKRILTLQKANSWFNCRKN
Summary of the method: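 Inhibitor dilutions were made in 100 mM Tris-HCl/100 mM NaCl/10 mM CaCl2 buffer, pH 7.5, and incubated at room temperature with activated proenzyme (from transfected HT-1080 media; APMA or trypsin) and 4 μM quenched methoxycoumarin peptide substrate. Loss of 415 nm fluorescence (328 nm excitation) against concentration gave IC50.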

[2] = biological target: T2, Human recombinant MMP-2 (Homo sapiens, UniProt P08253)
T2 construct: made in house; host or cells: MMP-2-transfected p2AHT2 cells
T2 sequence (P08253 110-660): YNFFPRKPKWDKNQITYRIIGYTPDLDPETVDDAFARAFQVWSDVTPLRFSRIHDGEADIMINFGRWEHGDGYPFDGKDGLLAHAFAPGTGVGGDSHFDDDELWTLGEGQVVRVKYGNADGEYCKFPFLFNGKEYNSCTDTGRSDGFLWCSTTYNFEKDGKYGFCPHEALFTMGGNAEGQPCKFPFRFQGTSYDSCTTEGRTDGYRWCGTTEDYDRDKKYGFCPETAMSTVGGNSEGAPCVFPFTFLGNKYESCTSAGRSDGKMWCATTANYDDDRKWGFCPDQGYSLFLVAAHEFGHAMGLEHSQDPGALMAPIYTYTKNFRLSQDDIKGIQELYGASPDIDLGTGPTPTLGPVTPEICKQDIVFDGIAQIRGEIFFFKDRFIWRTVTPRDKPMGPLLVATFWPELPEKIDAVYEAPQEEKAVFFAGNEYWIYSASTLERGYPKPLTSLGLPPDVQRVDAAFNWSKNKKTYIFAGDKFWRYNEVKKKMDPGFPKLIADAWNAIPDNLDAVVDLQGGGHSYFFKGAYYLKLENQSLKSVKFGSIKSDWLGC
Summary of the method: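 IC50 was derived from the concentration-dependent fall in fluorescence (ex 328, em 415 nm) on Gly-Leu cleavage of 4 μM MCA/Dpa-quenched substrate I. Assays ran at room temperature in pH 7.5 Tris/NaCl/CaCl2/Brij buffer with MMP-2 activated by trypsin or APMA; inhibitors were diluted from 1% DMSO stocks.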

[3] = biological target: T3, Human recombinant MMP-9 (Homo sapiens, UniProt P14780)
T3 construct: made in house; host or cells: MMP-9-transfected HT1080 cells (spent media)
Summary of the method: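 Reduction in fluorescence (328 nm excitation, 415 nm emission) from cleavage of 4 μM quenched peptide substrate I, measured at room temperature against inhibitor concentration, gave IC50. Enzyme: trypsin- or APMA-activated MMP-9 purified from transfected HT1080 medium; buffer 100 mM Tris, 100 mM NaCl, 10 mM CaCl2, pH 7.5.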

[4] = biological target: T4, Human recombinant MMP-13 (Homo sapiens, UniProt P45452)
T4 construct: made in house; host or cells: baculovirus / insect cells
Summary of the method: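 Fluorescence at 415 nm (excitation 328 nm) reports Gly-Leu cleavage of 4 μM quenched methoxycoumarin peptide substrate I. Human recombinant MMP-13, activated by trypsin or APMA, was incubated at room temperature with varied inhibitor concentrations in pH 7.5 Tris/NaCl/CaCl2 buffer; IC50 derived from reduced fluorescence.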

[5] = biological target: T5, Human recombinant MMP-14 (Homo sapiens, UniProt P50281)
T5 construct: The catalytic domain enzyme was expressed in E. coli inclusion bodies, solubilized in urea; made in house
Summary of the method: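 IC50 came from reduced fluorescence (ex 328 nm, em 415 nm) as inhibitor concentration rose, with 4 μM substrate I cleaved at Gly-Leu. Room-temperature incubation in pH 7.5 Tris buffer with 10 mM CaCl2; the E. coli-expressed, refolded MMP-14 catalytic domain was activated with trypsin or APMA.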

[6] = value outside parentheses (Ki in parenthesis)
[7] = substrate (I) 4 μM, room temperature, values not in parenthesis

T3 sequence (P14780 107-707 limits assumed): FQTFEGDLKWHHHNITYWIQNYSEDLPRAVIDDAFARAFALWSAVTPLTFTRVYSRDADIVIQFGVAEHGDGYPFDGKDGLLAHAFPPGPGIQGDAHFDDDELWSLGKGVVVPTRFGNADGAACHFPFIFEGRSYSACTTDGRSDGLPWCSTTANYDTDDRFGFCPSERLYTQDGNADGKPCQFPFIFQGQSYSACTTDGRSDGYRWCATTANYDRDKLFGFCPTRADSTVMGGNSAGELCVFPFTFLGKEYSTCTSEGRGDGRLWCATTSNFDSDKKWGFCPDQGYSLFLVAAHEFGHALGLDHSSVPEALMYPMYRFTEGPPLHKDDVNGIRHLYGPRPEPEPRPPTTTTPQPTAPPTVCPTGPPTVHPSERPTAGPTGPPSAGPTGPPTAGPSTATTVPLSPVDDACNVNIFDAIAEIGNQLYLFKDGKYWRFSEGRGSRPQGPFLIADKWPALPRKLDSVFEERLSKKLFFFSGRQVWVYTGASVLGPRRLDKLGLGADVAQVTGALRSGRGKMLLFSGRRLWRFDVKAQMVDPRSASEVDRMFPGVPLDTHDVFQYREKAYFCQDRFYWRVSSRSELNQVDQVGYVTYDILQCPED

| SMILES | IC50 [1, 6] [µM] | IC50 [2, 6] [µM] | IC50 [3, 6] [µM] | IC50 [4, 6] [µM] | IC50 [5, 6] [µM] | IC50 ([1]; value outside parenthesis) [µM] | IC50 ([2]; value outside parenthesis) [µM] | IC50 ([3]; value outside parenthesis) [µM] | IC50 ([4]; value outside parenthesis) [µM] | IC50 ([5]; value outside parenthesis) [µM] | also measured |
| --- | --- | --- | --- | --- | --- | --- | --- | --- | --- | --- | --- |
| CN(C)c1ccc(NC(=O)CCCOc2ccc(S(=O)(=O)C3(C(=O)NO)CCOCC3)cc2)cc1 [Example 357] | > 10 | 0.0102 | 0.952 | 0.0017 | > 10 |  |  |  |  |  |  |
| COC(=O)c1ccc(OCCOc2ccc(S(=O)(=O)C3(C(=O)NO)CCOCC3)cc2)cc1 [Example 651] |  |  |  |  |  |  |  |  |  |  | IC50 ([1]; value outside parentheses): > 10 µM; IC50 ([2]; value outside parentheses): 0.0187 µM; IC50 ([3]; value outside parentheses): 0.129 µM; IC50 ([4]; value outside parentheses): 0.00113 µM; IC50 ([5]; value outside parentheses): 0.651 µM |
| COc1ccc(C(=O)NCCCOc2ccc(S(=O)(=O)C3(C(=O)NO)CCN(C4CC4)CC3)cc2)cc1 [Example 18, 1-cyclopropyl-N-hydroxy-4-[[4-[3[(4-methoxybenzoyl)amino]propoxy]phenyl]sulfonyl]-4-piperidinecarboxamide, Monohydrochloride] |  |  |  |  |  |  |  |  |  |  | IC50 [1, 7]: > 10 µM; IC50 [2, 7]: 0.537 µM; IC50 [3, 7]: 6 µM; IC50 [4, 7]: 0.0018 µM; IC50 [5, 7]: > 10 µM |
| COc1cccc(-c2nnc(CCCOc3ccc(S(=O)(=O)C4(C(=O)NO)CCOCC4)cc3)o2)c1 [Example 280] |  |  |  |  |  | > 10 | 0.17 | 2.03 | 0.0015 | > 10 |  |
| O=C(NO)C1(S(=O)(=O)c2ccc(OCCCSc3nc4cc(Cl)ccc4s3)cc2)CCOCC1 [Example 284] |  |  |  |  |  | > 10 | 0.0101 | 0.0185 | 0.0011 | > 10 |  |
| O=C(NO)C1(S(=O)(=O)c2ccc(OCCCS(=O)(=O)NC34CC5CC(CC(C5)C3)C4)cc2)CCOCC1 [Example 645] |  |  |  |  |  |  |  |  |  |  | IC50 ([1]; value outside parentheses): 9.28 µM; IC50 ([2]; value outside parentheses): 0.0229 µM; IC50 ([3]; value outside parentheses): 1.73 µM; IC50 ([4]; value outside parentheses): 0.0043 µM; IC50 ([5]; value outside parentheses): > 10 µM |
| O=C(NO)C1(S(=O)(=O)c2ccc(OCCCc3nc(-c4ccccc4)no3)cc2)CCOCC1 [Example 241] |  |  |  |  |  | > 10 | 0.0602 | 0.944 | 0.0013 | > 10 |  |
| COc1ccc(OCCCCOc2ccc(S(=O)(=O)C3(C(=O)NO)CCOCC3)cc2)cc1 [Example 450] | > 10 | 0.0066 | 0.044 | 0.0009 | 4.94 |  |  |  |  |  |  |
| CC1CC(C)CN(S(=O)(=O)CCCOc2ccc(S(=O)(=O)C3(C(=O)NO)CCOCC3)cc2)C1 (centres unmarked) [Example 271] |  |  |  |  |  | > 10 | 0.0087 | 0.532 | 0.0029 | > 10 |  |
| O=C(NO)C1(S(=O)(=O)c2ccc(OCCCOc3ccc(F)cc3F)cc2)CCOCC1 [Example 445] | 3.32 | 0.0022 | 0.044 | 0.0005 | 0.546 |  |  |  |  |  |  |
| COC(=O)c1cccc(OCCOc2ccc(S(=O)(=O)C3(C(=O)NO)CCOCC3)cc2)c1 [Example 668] |  |  |  |  |  |  |  |  |  |  | IC50 ([1]; value outside parentheses): 7.66 µM; IC50 ([2]; value outside parentheses): 0.101 µM; IC50 ([3]; value outside parentheses): 0.288 µM; IC50 ([4]; value outside parentheses): 0.00153 µM; IC50 ([5]; value outside parentheses): 2.11 µM |
| CN(C)c1ccc(C(=O)CCCOc2ccc(S(=O)(=O)C3(C(=O)NO)CCOCC3)cc2)cc1 [Example 490] | > 10 | 0.0182 | 0.928 | 0.0002 | 5.63 |  |  |  |  |  |  |
| CN(C(=O)CCCOc1ccc(S(=O)(=O)C2(C(=O)NO)CCOCC2)cc1)c1ccccc1 [Example 654] |  |  |  |  |  |  |  |  |  |  | IC50 ([1]; value outside parentheses): > 10 µM; IC50 ([2]; value outside parentheses): 0.16 µM; IC50 ([3]; value outside parentheses): 0.97 µM; IC50 ([4]; value outside parentheses): 0.00055 µM; IC50 ([5]; value outside parentheses): > 10 µM |
| O=C(NO)C1(S(=O)(=O)c2ccc(OCCCO)cc2)CCOCC1 [Example 449] | 1.93 | 0.0037 | 0.041 | 0.007 | 0.058 |  |  |  |  |  |  |
| CN(CCCOc1ccc(S(=O)(=O)C2(C(=O)NO)CCOCC2)cc1)C(=O)c1ccc2ccccc2c1 [Example 289] |  |  |  |  |  | > 10 | 2.72 | > 10 | 0.0101 | > 10 |  |
| COc1ccc(CCCOc2ccc(S(=O)(=O)C3(C(=O)NO)CCOCC3)cc2)cc1OC [Example 466] | > 10 | 0.11 | 0.045 | 0.015 | > 10 |  |  |  |  |  |  |
| COc1ccc(C(=O)CCCc2ccc(S(=O)(=O)C3(C(=O)NO)CCOCC3)cc2)cc1 [Example 231] |  |  |  |  |  | > 10 | 0.0016 | 0.0102 | 0.0002 | 0.642 |  |
| CN(C)c1ccc(C(=O)NCCCOc2ccc(S(=O)(=O)C3(C(=O)NO)CCN(C4CC4)CC3)cc2)cc1 [Example 406] | > 10 | 2.2 | > 10 | 0.004 | > 10 |  |  |  |  |  |  |
| COc1ccc(C(=O)NCC(C)(C)COc2ccc(S(=O)(=O)C3(C(=O)NO)CCOCC3)cc2)cc1 [Example 392] | > 10 | > 10 | > 10 | 0.04 | > 10 |  |  |  |  |  |  |
| O=C1CN(c2ccc(OC(F)(F)F)cc2)C(=O)N1CCCOc1ccc(S(=O)(=O)C2(C(=O)NO)CCOCC2)cc1 [Example 144] |  |  |  |  |  | > 10 | 0.239 | 5.99 | 0.0025 | > 10 |  |
| O=C(NO)C1(S(=O)(=O)c2ccc(OCCCCN3CCc4ccccc4C3)cc2)CCOCC1 [Example 334] | > 10 | 0.0164 | 0.866 | 0.0051 | 2.88 |  |  |  |  |  |  |
| O=C1N(CCCOc2ccc(S(=O)(=O)C3(C(=O)NO)CCOCC3)cc2)CCN1c1ccc(F)cc1 [Example 195] |  |  |  |  |  | 4.38 | 0.0206 | 0.0458 | 0.0075 | 2.74 |  |
| O=C(NO)C1(S(=O)(=O)c2ccc(OCCCc3nnc(-c4ccc(OC(F)(F)F)cc4)o3)cc2)CCOCC1 [Example 200] |  |  |  |  |  | 7.5 | 0.084 | 1.21 | 0.0006 | > 10 |  |
| COc1ccc(OCCCOc2ccc(S(=O)(=O)C3(C(=O)NO)CCN(C4CC4)CC3)cc2)cc1 [Example 442] | > 10 | 0.0062 | 0.0054 | 0.0018 | 0.997 |  |  |  |  |  |  |
| CCc1ccc(N2CCN(CCCOc3ccc(S(=O)(=O)C4(C(=O)NO)CCOCC4)cc3)C2=O)cc1 [Example 191] |  |  |  |  |  | 6.96 | 0.341 | 0.383 | 0.0095 | > 10 |  |
| O=C(NO)C1(S(=O)(=O)c2ccc(OCCCSc3nc4ccc(Cl)cc4o3)cc2)CCOCC1 [Example 408] | > 10 | 0.09 | 0.049 | 0.0025 | 6.81 |  |  |  |  |  |  |
| O=C(NO)C1(S(=O)(=O)c2ccc(OCCSc3nc4ccccc4s3)cc2)CCOCC1 [Example 341] | > 10 | 0.0168 | 1.12 | 0.0005 | 6.4 |  |  |  |  |  |  |
| O=C(NO)C1(S(=O)(=O)c2ccc(OCCOCC3CC3)cc2)CCOCC1 [Example 655] |  |  |  |  |  |  |  |  |  |  | IC50 ([1]; value outside parentheses): > 10 µM; IC50 ([2]; value outside parentheses): 0.0241 µM; IC50 ([3]; value outside parentheses): 0.0699 µM; IC50 ([4]; value outside parentheses): 0.0284 µM; IC50 ([5]; value outside parentheses): > 10 µM |
